Results: ChEMBL document CHEMBL1201862, “PubChem BioAssay data set” (2004)
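Compound exposure: 48 hours, 5 concentrations, 96-well plates. At the GI50, growth is halved.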 Active and inactive are the calls of the source. Cut-off read from the data, not from the text of the source: active = GI50 up to about 1.1 µM and inactive = higher.

Legend:
Test in all cases: NCI anticancer screen, dose series, 48 h
U-251 = test system: U-251
HCT-15 = test system: HCT-15
OVCAR-8 = test system: OVCAR-8
SK-MEL-5 = test system: SK-MEL-5
COLO 205 = test system: COLO 205
RXF 393 = test system: RXF 393
SF-295 = test system: SF-295
MDA-N = test system: MDA-N
ACHN = test system: ACHN
A549 = test system: A549
OVCAR-5 = test system: OVCAR-5
UO-31 = test system: UO-31
KM12 = test system: KM12
UACC-62 = test system: UACC-62
LOX IMVI = test system: LOX IMVI
786-0 = test system: 786-0
NCI-H226 = test system: NCI-H226
Malme-3M = test system: Malme-3M
K562 = test system: K562
CCRF-CEM = test system: CCRF-CEM

Row | Compound | GI50 (U-251) | GI50 (HCT-15) | GI50 (OVCAR-8) | GI50 (SK-MEL-5) | GI50 (COLO 205) | GI50 (RXF 393) | GI50 (SF-295) | GI50 (MDA-N) | GI50 (ACHN) | GI50 (A549) | GI50 (OVCAR-5) | GI50 (UO-31) | GI50 (KM12) | GI50 (UACC-62) | GI50 (LOX IMVI) | GI50 (786-0) | GI50 (NCI-H226) | GI50 (Malme-3M) | GI50 (K562) | GI50 (CCRF-CEM)
1 | CCn1nc(C)c2c1C(=O)NC(C)C(=O)N2 (stereo unspecified) | > 100 µM (inactive) | 15.1 µM | > 100 µM (inactive) | > 100 µM (inactive) | > 100 µM (inactive) | > 100 µM (inactive) | > 100 µM (inactive) | > 100 µM (inactive) | > 100 µM (inactive) | > 100 µM (inactive) | > 100 µM (inactive) | > 100 µM (inactive) | > 10 µM (inactive) | > 100 µM (inactive) |  |  |  |  |  | 
2 | CC1=C(C(=O)NNC(=O)CC#N)CC(C(=O)NNC(=O)CC#N)=C(C)N1 | > 100 µM (inactive) | > 100 µM | > 100 µM (inactive) | > 100 µM (inactive) | > 100 µM (inactive) | > 100 µM (inactive) | > 100 µM (inactive) | > 100 µM (inactive) | > 100 µM (inactive) | > 100 µM (inactive) | > 100 µM (inactive) | > 100 µM (inactive) | > 100 µM (inactive) |  | > 100 µM (inactive) | > 100 µM (inactive) | > 100 µM (inactive) |  |  | 
3 | O=C1OC[C@@H]2Cc3cc4c(cc3[C@H](c3ccc5c(c3)OCO5)[C@@H]12)OCO4 | > 25 µM (inactive) | 11 µM | > 25 µM (inactive) | 16 µM (inactive) | > 25 µM (inactive) |  | 24.7 µM (inactive) | 12 µM (inactive) | > 25 µM (inactive) | > 25 µM (inactive) | > 25 µM (inactive) | 15.6 µM (inactive) | > 25 µM (inactive) |  | > 25 µM (inactive) | > 25 µM (inactive) |  | > 25 µM (inactive) | 12 µM (inactive) | > 25 µM (inactive)
4 | Nc1nc2c(c(-c3ccccc3Cl)n1)COC/C2=C\c1ccccc1Cl | 16.8 µM (inactive) | 15.9 µM | 16 µM (inactive) | 16.4 µM (inactive) | 16.3 µM (inactive) | 16 µM (inactive) | 14.3 µM (inactive) | 10.9 µM (inactive) | 17.9 µM (inactive) |  | 17.2 µM (inactive) | 17.1 µM (inactive) | 17.9 µM (inactive) | 16 µM (inactive) | 18.7 µM (inactive) | 17.2 µM (inactive) | 18.8 µM (inactive) |  | 12.2 µM (inactive) | 11.7 µM (inactive)
5 | SC1=NC2=C(CSC/C2=C\c2ccc(Cl)cc2)C(c2ccc(Cl)cc2)N1 (stereo unspecified) | 36.8 µM (inactive) | 34 µM | 39.2 µM (inactive) | 19.1 µM (inactive) | 17.3 µM (inactive) |  | 42.2 µM (inactive) | 33.5 µM (inactive) | 40 µM (inactive) | 34.4 µM (inactive) | 72.4 µM (inactive) | 32.4 µM (inactive) | 25.9 µM (inactive) | 49 µM (inactive) | 27 µM (inactive) | 26.5 µM (inactive) |  | 26.4 µM (inactive) | 28.6 µM (inactive) | 24.7 µM (inactive)
6 | O=C1OC(C(O)CO)C(O)=C1O (stereo unspecified) | > 100 µM (inactive) | > 100 µM | > 100 µM (inactive) | > 100 µM (inactive) | > 100 µM (inactive) |  | > 100 µM (inactive) | > 100 µM (inactive) | > 100 µM (inactive) | > 100 µM (inactive) | > 100 µM (inactive) | > 100 µM (inactive) | > 100 µM (inactive) |  | > 100 µM (inactive) | > 100 µM (inactive) | > 100 µM (inactive) | > 100 µM (inactive) | 65.8 µM (inactive) | > 10 µM (inactive)
7 | C=C(C)C12OC1[C@@]1(C)C(=CC2=O)CCC(O)[C@@H]1C (stereo partly specified) | 1.14 µM (inactive) | 1.92 µM | 1.45 µM (inactive) | 3.22 µM (inactive) | 1.61 µM (inactive) |  | 2.58 µM (inactive) | 2.68 µM (inactive) | 0.417 µM (active) | 1.42 µM (inactive) | 8.51 µM (inactive) | 1.49 µM (inactive) | 2.44 µM (inactive) | 3.66 µM (inactive) | 2.67 µM (inactive) | 1.64 µM (inactive) |  | 3.38 µM (inactive) |  | 0.726 µM (active)
8 | COc1ccc(/N=N/C(=N\c2ccc(F)cc2)c2ccc(N(CCC#N)CCC#N)cc2)cc1 | 13.9 µM (inactive) | 54 µM | 33.5 µM (inactive) | 12.4 µM (inactive) | 39.2 µM (inactive) | 15.4 µM (inactive) | 32.9 µM (inactive) | 29.9 µM (inactive) | 82.8 µM (inactive) | 18.7 µM (inactive) | 52.1 µM (inactive) | 68.5 µM (inactive) | 16.9 µM (inactive) | 15.7 µM (inactive) |  | 42.3 µM (inactive) | > 100 µM (inactive) |  | 27.6 µM (inactive) | 36.1 µM (inactive)
